{
  "source": "patent US20030096956A1",
  "about": "“Process for producing kiss-1 peptide” (priority 1999, published 2003)",
  "test_system": "intracellular calcium ion concentration",
  "assay": "activity of increasing intracellular calcium ion concentration (method of Example 3 of WO 99/33976)",
  "assay_type": "cell-based",
  "conditions": "compared with a standard product isolated from human placenta extract",
  "note": "Ends that are not written are not given here.",
  "data": [
    {"substance": "human KiSS-1 peptide: Recombinant peptide of SEQ ID NO: 1 with C-terminal amide, cleaved from KiSS-1 peptide-CS23 fusion protein expressed in E. coli (GTSLSPPPESSGSRQQPGLSAPHSRQIPAPQGAVLVQREKDLPNYNWNSFGLRF-NH2)", "values": [
      {"measurement": "activity of increasing intracellular calcium ion concentration", "value": "equivalent to that of a standard product isolated from human placenta extract"}
    ]}
  ]
}
